Literature values, collected in US8552051B2 (H. L. Hall & Sons Limited, priority 2009, dated 2013).

Tests used:
[1] = test system: PDE4; details: Napoletano, M. et al. 2001
[2] = target: 5-HT uptake (Homo sapiens, UniProt P31645); details: U.S. Pat. No. 6,288,104
5-HT uptake, sequence (P31645 whole entry): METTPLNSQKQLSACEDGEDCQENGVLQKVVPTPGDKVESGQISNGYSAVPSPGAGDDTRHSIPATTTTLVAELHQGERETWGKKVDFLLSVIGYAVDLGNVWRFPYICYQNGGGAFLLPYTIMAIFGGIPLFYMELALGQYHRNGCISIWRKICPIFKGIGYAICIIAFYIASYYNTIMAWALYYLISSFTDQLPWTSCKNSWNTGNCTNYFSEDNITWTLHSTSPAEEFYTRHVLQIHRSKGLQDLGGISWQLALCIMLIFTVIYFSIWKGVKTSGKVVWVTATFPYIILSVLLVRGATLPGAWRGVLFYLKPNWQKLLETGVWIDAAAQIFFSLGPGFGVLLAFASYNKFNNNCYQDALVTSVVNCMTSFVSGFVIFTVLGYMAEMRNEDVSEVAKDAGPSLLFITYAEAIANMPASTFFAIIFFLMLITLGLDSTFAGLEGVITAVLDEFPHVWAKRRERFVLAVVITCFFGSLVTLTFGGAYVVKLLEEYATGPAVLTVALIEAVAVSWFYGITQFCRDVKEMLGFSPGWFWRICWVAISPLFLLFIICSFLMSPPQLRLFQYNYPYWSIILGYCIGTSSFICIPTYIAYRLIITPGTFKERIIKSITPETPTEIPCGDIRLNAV

Row | Structure (SMILES) | PDE4 inhibition, result in words [1] | 5-HT uptake inhibitory activity, result in words [2]
1 | COc1ccc(C23CCC(=O)CC2N(C)CC3)cc1OC.Cl (centres unmarked) [Mesembrine hydrochloride] | weak PDE4 inhibitor | –
2 | COc1ccc(C23C=CC(O)CC2N(C)CC3)cc1OC (centres unmarked) [mesembrenol] | – | potent 5-HT uptake inhibitory activity
